Results from patent US10793589B2, “Resorcinarene-based amphipathic compound and use thereof” (Industry-University Cooperation Foundation Hanyang …, priority 2016, dated 2020).

Key:
[1] = target: T1, human β2 adrenergic receptor (β2AR) (Homo sapiens, UniProt P07550); experiment: β2AR stability, [3H]-dihydroalprenolol (DHA) ligand binding assay; format: biochemical; settings: for maintaining the ligand binding characteristic of the receptor compared to DDM: 0 hour, CMC+0.2 wt %, [3H]-DHA
T1 construct: made in house
Procedure: FIGS. 10A and 10B illustrate a result of measuring the effect of RGAs on the stability of β2AR after (a) 0 hour and (b) over time. Protein-ligand binding characteristics were measured via ligand binding assay using [^3H]-dihydroalprenolol (DHA), and the measurement was carried out by sampling a protein sample at regular intervals during 2 days of storage at room temperature.
FIGS. 12A and 12B illustrate a result of measuring the effect of RMAs on the stability of β2AR after (a) 0 hour and (b) over time. Protein-ligand binding characteristics were measured via ligand binding assay using [^3H]-dihydroalprenolol (DHA), and the measurement was carried out by sampling a protein sample at regular intervals during 2 days of storage at room temperature.
An experiment was carried out to measure the structural stability of a human (32 adrenergic receptor (β2AR) and a G protein-coupled receptor (GPCR) caused by RGAs and RMAs. That is, a receptor purified with DDM was diluted with a buffer solution containing only each RGA and RMA without cholesteryl hemisuccinate (CHS) or a buffer solution containing CHS and DDM. The final concentration of the compound was CMC+0.2 wt %, and the ligand binding characteristic of the receptor was measured using [^3H]-dihydroalprenolol ([^3H]-DHA) binding.
Specifically, radioligand binding assay was carried out using the following method. β2AR was purified using 0.1% DDM according to the method described in a paper (Science, 2007, 318, 1266-1273.) written by D. M. Rosenbaum et al. and finally concentrated to about 10 mg/ml (about 200 μM). The β2AR purified with DDM was used to prepare a master binding mixture containing 10 nM [^3H]-dihydroalprenolol (DHA) supplemented with 0.5 mg/ml BSA in a 0.2% amphipathic compound (DDM, RGAs or RMAs). The receptor purified with DDM, RGAs or RMAs was incubated with 10 nM [^3H]-DHA at room temperature for 30 minutes. The mixture was loaded into a G-50 column, the flow-through was collected with 1 ml of a binding buffer (20 mM HEPES pH 7.5, 100 mM NaCl, supplemented with 0.5 mg/ml BSA and 20×CMC individual amphipathic compound, and the G-50 column was further filled with 15 ml of a scintillation fluid. Receptor-bound [^3H]-DHA was measured with a scintillation counter (Beckman). The binding capacity of [^3H]-DHA was measured and shown in a column graph. Each experiment was performed in triplicate.

[2] = Critical micelle concentration by fluorescence dye diphenylhexatriene (DPH); format: physicochemical; settings: DPH fluorescence
Procedure: A method of measuring the CMC is not particularly limited and may be any method generally known in the art. For example, the CMC may be measured according to a fluorescence staining method using diphenylhexatriene (DPH).
(§1) Specifically, critical micelle concentrations (CMCs) were measured using a fluorescence dye, diphenylhexatriene (DPH), and hydrodynamic radii (Rh) of micelles formed of each compound (1.0 wt %) were measured by a dynamic light scattering (DLS) experiment. Measured results are shown in Table 1 in comparison with values of DDM as an existing amphipathic molecule (detergent).

[3] = Hydrodynamic radius and size distribution of micelles by dynamic light scattering (DLS); format: physicochemical; settings: compound 1.0 wt %
Procedure: A method of measuring the radius of a micelle is not particularly limited and may be any method generally known in the art. For example, the radius may be measured by a dynamic light scattering (DLS) experiment.
as §1
Meanwhile, size distributions of the micelles formed by RGAs and RMAs were measured using DLS.

[4] = tested on: leucine transporter (LeuT); experiment: LeuT structural stability, [3H]-Leu binding by scintillation proximity assay (SPA); format: biochemical, Aquifex aeolicus
Procedure: FIGS. 7A and 7B are a set of graphs illustrating a result of measuring the structural stability of a leucine transporter (LeuT) solubilized in RGAs or DDM evaluated at CMC+0.04 wt % (a) or CMC+0.2 wt % (b). Protein stability was determined by measuring the ability of the transporter to bind a radiolabeled ligand ([3H]-Leu) via scintillation proximity assay (SPA). The substrate binding ability of LeuT was measured at regular intervals during 10 days of incubation of the protein at room temperature in the presence of individual amphipathic compounds.
FIGS. 8A and 8B are a set of graphs illustrating a result of measuring the structural stability of a leucine transporter (LeuT) solubilized in RMAs or DDM evaluated at CMC+0.04 wt % (a) or CMC+0.2 wt % (b). Protein stability was determined by measuring the ability of the transporter to bind a radiolabeled ligand ([3H]-Leu) via scintillation proximity assay (SPA). The substrate binding ability of LeuT was measured at regular intervals during 10 days of incubation of the protein at room temperature in the presence of individual amphipathic compounds.
An experiment was carried out to measure the structural stability of a leucine transporter (LeuT) caused by RGAs and RMAs. The concentrations of individual amphipathic compounds were (a) CMC+0.04 wt % or (b) CMC+0.2 wt %, and the substrate binding characteristic of LeuT was measured by scintillation proximity assay (SPA) using [^3H]-Leu. […]
Specifically, wild type LeuT derived from Aquifex aeolicus which is a thermophilic bacterium was purified according to the method described in the paper (Nature 1998, 392, 353-358) written by G. Deckert et al. LeuT was expressed in E. coli C41 (DE3) transformed with pET16b encoding a C-terminal 8×His-tagged transporter (an expression plasmid was provided by Dr. E. Gouaux (Vollum Institute, Portland, Oreg., USA)). […] The protein samples were stored at room temperature for 10 days and centrifuged at designated time points, and protein characteristics were determined by measuring the binding capacity of [^3H]-Leucine using SPA. […]

T1 sequence (P07550 whole entry): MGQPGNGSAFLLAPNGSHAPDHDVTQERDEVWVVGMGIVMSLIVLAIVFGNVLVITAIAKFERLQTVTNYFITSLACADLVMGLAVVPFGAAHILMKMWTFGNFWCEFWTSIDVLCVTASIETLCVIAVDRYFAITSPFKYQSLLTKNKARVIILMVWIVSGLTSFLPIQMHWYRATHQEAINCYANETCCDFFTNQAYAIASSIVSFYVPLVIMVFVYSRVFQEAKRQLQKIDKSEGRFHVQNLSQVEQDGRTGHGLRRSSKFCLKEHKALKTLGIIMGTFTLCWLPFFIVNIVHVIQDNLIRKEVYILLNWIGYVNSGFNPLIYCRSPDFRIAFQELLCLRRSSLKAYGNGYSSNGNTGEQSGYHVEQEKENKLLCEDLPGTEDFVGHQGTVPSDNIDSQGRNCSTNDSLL

For `CCCCCCCCCCC[C@H]1c2cc(c(OCCO[C@@H]3OC(CO)[C@@H](O)[C@H](O)C3O)cc2OCCO[C@@H]2OC(CO)[C@@H](O)[C@H](O)C2O)[C@H](CCCCCCCCCCC)c2cc(c(OCCO[C@@H]3OC(CO)[C@@H](O)[C@H](O)C3O)cc2OCCO[C@@H]2OC(CO)[C@@H](O)[C@H](O)C2O)[C@@H](CCCCCCCCCCC)c2cc(c(OCCO[C@@H]3OC(CO)[C@@H](O)[C@H](O)C3O)cc2OCCO[C@@H]2OC(CO)[C@@H](O)[C@H](O)C2O)[C@@H](CCCCCCCCCCC)c2cc1c(OCCO[C@@H]1OC(CO)[C@@H](O)[C@H](O)C1O)cc2OCCO[C@@H]1OC(CO)[C@@H](O)[C@H](O)C1O` (some centres unmarked) [RGA-C12], which “maintaining the ligand binding characteristic of the receptor compared to DDM” value [1] is on record?
The value was “superior to DDM”.

And the “ability to maintain the ligand binding of the receptor over time compared to DDM” value ([1]; 2 days at room temperature, early stage (0 to 12 h))?
Its value is “inferior ability to maintain the ligand binding of the receptor compared to DDM”.

What about the CMC [2] of the same compound?
The CMC was roughly 2.5 µM.

What about the “CMC (wt %)” value [2] of the same compound?
Its value is roughly 0.0069 wt %.

And the “Rh (nm), hydrodynamic radius of micelles” value [3]?
Its value is 3.0 ± 0.2 nm.

With `CCCCCCC[C@H]1c2cc(c(OCCO[C@@H]3OC(CO)[C@@H](O)[C@H](O)C3O)cc2OCCO[C@@H]2OC(CO)[C@@H](O)[C@H](O)C2O)[C@H](CCCCCCC)c2cc(c(OCCO[C@@H]3OC(CO)[C@@H](O)[C@H](O)C3O)cc2OCCO[C@@H]2OC(CO)[C@@H](O)[C@H](O)C2O)[C@@H](CCCCCCC)c2cc(c(OCCO[C@@H]3OC(CO)[C@@H](O)[C@H](O)C3O)cc2OCCO[C@@H]2OC(CO)[C@@H](O)[C@H](O)C2O)[C@@H](CCCCCCC)c2cc1c(OCCO[C@@H]1OC(CO)[C@@H](O)[C@H](O)C1O)cc2OCCO[C@@H]1OC(CO)[C@@H](O)[C@H](O)C1O` (some centres unmarked) [RGA-C8] as the compound, how does the “maintaining the ligand binding characteristic of the receptor compared to DDM” value [1] read?
The value was “inferior to DDM”.

What about the CMC [2] of the same compound?
Its CMC is roughly 10 µM.

And the “CMC (wt %)” value [2]?
Its value is roughly 0.025 wt %.

And the “Rh (nm), hydrodynamic radius of micelles” value [3]?
The value was 2.8 ± 0.1 nm.

And the “LeuT stabilization as concentration of compound increased” value ([4]; CMC+0.04 wt % versus CMC+0.2 wt %)?
The value was “enhanced effect as concentration increased”.

And the “effect of maintaining the substrate binding characteristic of LeuT” value ([4]; CMC+0.2 wt %, 10 days at room temperature)?
Its value is “highest effect of maintaining the substrate binding characteristic of LeuT”.

Which CMC [2] does the source give for `CCCCCCCCC[C@H]1c2cc(c(OCCO[C@@H]3OC(CO)[C@@H](O)[C@H](O)C3O)cc2OCCO[C@@H]2OC(CO)[C@@H](O)[C@H](O)C2O)[C@H](CCCCCCCCC)c2cc(c(OCCO[C@@H]3OC(CO)[C@@H](O)[C@H](O)C3O)cc2OCCO[C@@H]2OC(CO)[C@@H](O)[C@H](O)C2O)[C@@H](CCCCCCCCC)c2cc(c(OCCO[C@@H]3OC(CO)[C@@H](O)[C@H](O)C3O)cc2OCCO[C@@H]2OC(CO)[C@@H](O)[C@H](O)C2O)[C@@H](CCCCCCCCC)c2cc1c(OCCO[C@@H]1OC(CO)[C@@H](O)[C@H](O)C1O)cc2OCCO[C@@H]1OC(CO)[C@@H](O)[C@H](O)C1O` (some centres unmarked) [RGA-C10] here?
Its CMC is roughly 5 µM.

What about the “CMC (wt %)” value [2] of the same compound?
Its value is roughly 0.013 wt %.

And the “Rh (nm), hydrodynamic radius of micelles” value [3]?
Its value is 3.5 ± 0.2 nm.
